Laboratory results: patent US9173838B2, “Reverse micelle compositions for delivery of metal cations comprising a diglyceride and a phytosterol and method of preparation” (MEDESIS PHARMA SA, priority 2004, dated 2015)
Each block holds one molecule with its values, some of them ahead of it.

Columns and labels:
[1] = tested on: adryamycin-induced inflammation/oedema in male Wistar rat leg; experiment: SOD like activity on rats: test with adryamycin (oedema by plethysmography); format: in vivo
Description: 2—<<SOD Like>> Activity on Rats: Test with Adryamycin
The test with adryamycin is a specific test to highlight free anti-radicals activity of a substance. The product contains reverse micelles based on manganese prepared according to example 3.
One hour after injection in the leg of a male Wistar rat of 0.2 ml of a solution of adryamycin, a temporary inflammation appears for approximately 12 hours. A second inflammatory phase begins on the 3rd day and lasts for 5 days. The vascular hyperpermeability and the oedema which results therefrom, with a deterioration of the cells of endothelial membranes, are caused by the release of free radicals. […] The oedema is measured by plethysmography (expressed by % of pow volume).
3 batches of 10 rats are made up: • negative batch controls: olive oil administration (2 ml/kg) by rectal route • positive batch controls: administration of 100 mg/kg of diosmine • batch treated by NP 02 (manufactured according to example 3): 2 ml/kg by rectal route Results (SD Stands for Standard Deviation)—FIG. 3

[2] = tested on: fructose rats (non insulin dependent diabetes model); experiment: Antidiabetic activity on fructose rats; format: in vivo; conditions: for glycemia D 0: D0 before start of treatment (baseline); for glycemia D3: day 3 of daily treatment; for glycemia D7: day 7 of daily treatment; for glycemia D21: day 21 of daily treatment
Source text: 1—Antidiabetic Activity on Fructose Rats
The model of the fructose rats is a non insulin dependent diabetes (NIDD) similar to the observed human type 2 diabetes.
In this study, the NP 01 product contains reverse micelles based on vanadium, prepared according to example 2. Its therapeutic activity is compared with two reference drugs: Metformin and Rosiglitazone.
At D −21, after the period of stalling, rats are weighed and a blood sampling is made to determine the basal values of the biochemical parameters.
The rats are distributed randomly in groups of 10 rats. The drink water is then replaced by a solution of fructose 10% in distilled water. This solution is provided ad libitum for 21 days. They receive then again normal water for the following 21 days of the treatment.
At D 0, animals are weighed and a blood sampling is carried out.
The treatment then starts for a 21-day duration, with a daily administration: • Control group: 1 ml/kg of normal water per os • NP 01group: 2 ml/kg by the rectal route • Metformin group: 50 mg/kg of Metformin per os. • Rosiglitazone group: 5 mg/kg of Rosiglitazone per os
At D 21, blood sample and end of the treatment.

[3] = Strontium amount in bone and plasma of growing rats (atomic absorption); format: in vivo, Wistar female rats; conditions: end of 6 weeks treatment
Description: (§1) The animals are Wistar female rats of 200 g (average).
(§2) Homogeneous batches of 10 rats are made up starting from their weight.
(§3) The treatment is administered once per day during 6 weeks.
(§4) Administered batches and products: • control batch (administration of olive oil by rectal route) • SrCl2 batch (SrCl2 and strontium ranelate are known active ingredients for the osseous growth and treatment of osteoporosis). 68.2 mg of metal Sr/kg/day are administered by rectal route. • NP 05 A batch: product prepared according to example 4 of the invention, with 12.5 mg metal Sr/kg/day.
(§5) NP 05 B batch: product prepared according to example 5 of the invention, with 1.21 mg metal Sr/kg/day.
(§6) NP 05 C batch: product prepared according to example 6 of the invention, with 0.12 mg metal Sr/kg/day.
(§7) Parameters analyzed at the end of the treatment: • animals weight • measurement of the diameter of the rats femoral head after euthanasia and sampling (slide caliper under binocular magnifying glass) • Strontium amount in bone (by atomic absorption). • Strontium amount in plasma (by atomic absorption). Results

growing rats = experiment: Stimulation of the osseous growth on growing rats (femoral diameter); format: in vivo, Wistar female rats; conditions: once per day during 6 weeks, rectal route
Description: 3—Stimulation of the Osseous Growth on Growing Rats
The objective of this study is the assessment of a stimulation activity of the osseous growth in growing rats.
The product contains reverse micelles based on strontium prepared according to example 4.
as §1, §2, §3, §4, §5, §6, §7

Compound: COc1ccc(-c2cc(=O)c3c(O)cc(O[C@@H]4O[C@H](CO[C@@H]5O[C@@H](C)[C@H](O)[C@@H](O)[C@H]5O)[C@@H](O)[C@H](O)[C@H]4O)cc3o2)cc1O [Positive control, diosmine]
- free anti-radicals activity (in words) [1]: free anti-radical activity similar to Manganese superoxydismutase
- % of pow volume D1 ([1]; Wistar rats, D1): 106.7%
- % of pow volume D2 ([1]; Wistar rats, D2): 120.8%
- % of pow volume D3 ([1]; Wistar rats, D3): 152.2%
- % of pow volume D4 ([1]; Wistar rats, D4): 163%
- % of pow volume D5 ([1]; Wistar rats, D5): 177.6%
- % of pow volume D6 ([1]; Wistar rats, D6): 177.5%
- % of pow volume D7 ([1]; Wistar rats, D7): 168.2%
- % of pow volume D8 ([1]; Wistar rats, D8): 163.5%

Compound: CN(C)C(=N)N=C(N)N [Metformin]
- glycemia D 0 [2]: 10.64 mmol/L
- glycemia D3 [2]: 10.63 mmol/L
- glycemia D7 [2]: 9.68 mmol/L
- glycemia D21 [2]: 8.91 mmol/L

Compound: CN(CCOc1ccc(CC2SC(=O)NC2=O)cc1)c1ccccn1 (stereo not shown) [Rosiglitazone]
- glycemia D 0 [2]: 10.38 mmol/L
- glycemia D3 [2]: 10.47 mmol/L
- glycemia D7 [2]: 9.37 mmol/L
- glycemia D21 [2]: 9.13 mmol/L

- Sr in bone [3]: 1508.83 µg/g
Compound: [Cl-].[Cl-].[Sr+2] [SrCl2]
- Femoral diameter (growing rats): 3.93 mm
